Values of other authors as cited in patent US20050165041A1, “Combination for the treatment of airway disorders” (Altana Pharma AG, priority 2002, published 2005).

Columns and labels:
[1] = 8-week double-blind, placebo-controlled crossover study; sole medication
[2] = tested on: HCl-induced lung lesions; details: rats
[3] = combination with theophyllin

Structure (SMILES) | nocturnal asthma symptoms [1] | effect on HCl-induced lung lesions [2] | pharmacokinetic interaction with theophyllin [3]
COc1ccc2[nH]c([S+]([O-])Cc3ncc(C)c(OC)c3C)nc2c1 (stereo not shown) [omeprazole, 5-methoxy-2-[(4-methoxy-3,5-dimethyl-2-pyridinyl)methylsulphinyl]-1H-benzimidazole] | reduction in nocturnal asthma symptoms | beneficial effect | –
Cc1c(OCC(F)(F)F)ccnc1C[S+]([O-])c1nc2ccccc2[nH]1 (stereo not shown) [lansoprazole] | – | – | lack of pharmacokinetic interaction
COc1ccnc(C[S+]([O-])c2nc3ccc(OC(F)F)cc3[nH]2)c1OC (stereo not shown) [pantoprazole, 5-difluoromethoxy-2-[(3,4-dimethoxy-2-pyridinyl)methylsulphinyl]-1H-benzimidazole] | – | – | lack of pharmacokinetic interaction
